According to ChEMBL document CHEMBL1201862, “PubChem BioAssay data set” (2004):
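Compound exposure: 48 hours, 5 concentrations, 96-well plates. At the GI50, growth is halved.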 Activity calls are given as the source filed them. Cut-off read from the data, not from the text of the source: active = GI50 up to about 1.1 µM and inactive = higher.

Legend:
Test in all cases: DTP human tumour cell line panel, 48 h
A549 = tested on: A549
UO-31 = tested on: UO-31
RPMI-8226 = tested on: RPMI-8226
KM12 = tested on: KM12
MDA-N = tested on: MDA-N
ACHN = tested on: ACHN
SK-OV-3 = tested on: SK-OV-3
Hs-578T = tested on: Hs-578T
HCT-15 = tested on: HCT-15
SNB-75 = tested on: SNB-75
IGROV-1 = tested on: IGROV-1
SK-MEL-2 = tested on: SK-MEL-2
MDA-MB-231 = tested on: MDA-MB-231
Malme-3M = tested on: Malme-3M
DU-145 = tested on: DU-145
SW-620 = tested on: SW-620
TK-10 = tested on: TK-10
UACC-257 = tested on: UACC-257
NCI-H522 = tested on: NCI-H522

SMILES	GI50 (A549)	GI50 (UO-31)	GI50 (RPMI-8226)	GI50 (KM12)	GI50 (MDA-N)	GI50 (ACHN)	GI50 (SK-OV-3)	GI50 (Hs-578T)	GI50 (HCT-15)	GI50 (SNB-75)	GI50 (IGROV-1)	GI50 (SK-MEL-2)	GI50 (MDA-MB-231)	GI50 (Malme-3M)	GI50 (DU-145)	GI50 (SW-620)	GI50 (TK-10)	GI50 (UACC-257)	GI50 (NCI-H522)
OCCN(/N=C\c1ccc2ccccc2c1)C1=NCCN1	59.2 µM (inactive)	54.7 µM (inactive)	28.8 µM (inactive)	38.2 µM (inactive)	17.2 µM (inactive)	29.1 µM (inactive)	47.9 µM (inactive)	36.1 µM (inactive)	30.5 µM	20.7 µM (inactive)	35.1 µM (inactive)	20.3 µM (inactive)	12.8 µM (inactive)	15.6 µM (inactive)	31.6 µM (inactive)	21.1 µM (inactive)	37.7 µM (inactive)	–	–
COC(=O)c1c(C)cccc1/C=C1\Cc2cc(C)cc(C)c2C1=O	76.4 µM (inactive)	> 100 µM (inactive)	> 100 µM (inactive)	> 100 µM (inactive)	> 100 µM (inactive)	27.9 µM (inactive)	–	18.1 µM (inactive)	> 100 µM	12.9 µM (inactive)	65.8 µM (inactive)	13.2 µM (inactive)	> 100 µM (inactive)	> 100 µM (inactive)	> 100 µM (inactive)	> 100 µM (inactive)	27.2 µM (inactive)	> 100 µM (inactive)	11.2 µM (inactive)
CN(C)CC1COC2Cc3ccccc3C1O2 (stereo not given)	> 100 µM (inactive)	> 100 µM (inactive)	> 100 µM (inactive)	> 100 µM (inactive)	> 100 µM (inactive)	> 100 µM (inactive)	> 100 µM (inactive)	> 100 µM (inactive)	> 100 µM	–	> 100 µM (inactive)	> 100 µM (inactive)	> 100 µM (inactive)	> 100 µM (inactive)	> 100 µM (inactive)	–	> 100 µM (inactive)	> 100 µM (inactive)	> 100 µM (inactive)
CCc1cccc(C(C)C)c1NC(=O)C(=O)Nn1c(S)nc2ccccc2c1=O	> 100 µM (inactive)	> 100 µM (inactive)	> 100 µM (inactive)	> 100 µM (inactive)	> 100 µM (inactive)	> 100 µM (inactive)	> 100 µM (inactive)	> 100 µM (inactive)	> 100 µM	> 100 µM (inactive)	59.4 µM (inactive)	> 100 µM (inactive)	76.2 µM (inactive)	> 100 µM (inactive)	–	> 100 µM (inactive)	> 100 µM (inactive)	> 100 µM (inactive)	> 100 µM (inactive)
Brc1ccc(C2C3CSc4ccccc4C3=NN2c2ccccc2)cc1 (stereo not given)	56.9 µM (inactive)	94.8 µM (inactive)	27.3 µM (inactive)	44.5 µM (inactive)	> 100 µM (inactive)	–	82.8 µM (inactive)	> 100 µM (inactive)	39.6 µM	69 µM (inactive)	74.8 µM (inactive)	> 100 µM (inactive)	> 100 µM (inactive)	> 100 µM (inactive)	> 100 µM (inactive)	34.7 µM (inactive)	> 100 µM (inactive)	4.07 µM (inactive)	–
CC1(C)OC(=O)N(c2ccccc2)C12C=Cc1cc([N+](=O)[O-])cc([N+](=O)[O-])c1O2 (stereo not given)	> 100 µM (inactive)	34.2 µM (inactive)	> 100 µM (inactive)	> 100 µM (inactive)	> 100 µM (inactive)	> 100 µM (inactive)	> 100 µM (inactive)	59.8 µM (inactive)	> 100 µM	66.5 µM (inactive)	> 100 µM (inactive)	> 100 µM (inactive)	> 100 µM (inactive)	–	> 100 µM (inactive)	> 100 µM (inactive)	> 100 µM (inactive)	50.2 µM (inactive)	25.2 µM (inactive)
O=C(O)COCC(=O)N(CCOCCN(Cc1ccccc1)C(=O)COCC(=O)O)Cc1ccccc1	> 100 µM (inactive)	–	> 100 µM (inactive)	> 100 µM (inactive)	> 100 µM (inactive)	> 100 µM (inactive)	> 100 µM (inactive)	> 100 µM (inactive)	> 100 µM	–	> 100 µM (inactive)	> 100 µM (inactive)	> 100 µM (inactive)	> 100 µM (inactive)	> 100 µM (inactive)	> 100 µM (inactive)	> 100 µM (inactive)	> 100 µM (inactive)	> 100 µM (inactive)
NS(=O)(=O)c1cc2c(cc1Cl)NCNS2(=O)=O [HYDROCHLOROTHIAZIDE]	> 100 µM (inactive)	> 100 µM (inactive)	> 100 µM (inactive)	> 100 µM (inactive)	> 100 µM (inactive)	> 100 µM (inactive)	–	> 100 µM (inactive)	> 100 µM	> 100 µM (inactive)	> 100 µM (inactive)	> 100 µM (inactive)	> 100 µM (inactive)	> 100 µM (inactive)	> 100 µM (inactive)	> 100 µM (inactive)	> 100 µM (inactive)	> 100 µM (inactive)	> 100 µM (inactive)
